Assay [1] deals with 60 clinical P. aeruginosa isolates. In words: Antibiotic susceptibility testing, NEG MIC Type 30 panel on MicroScan WalkAway-96 SI, MICs interpreted according to NCCLS guidelines. In kind it is cell-based, Pseudomonas aeruginosa. Particulars: for MIC: Pseudomonas aeruginosa, read-out: 60 MIC. The text has this:
The wild-type reference strain P. aeruginosa PAO1 was obtained from the ATCC (AT47085). The other P. aeruginosa strains were collected from patients at the Robert Bosch Hospital in Stuttgart, Germany. They were recovered from respiratory samples (n=51), swabs (n=5), urine (n=2) and faeces (n=2). All isolates were identified with the API 20NE system (bioMerieux, Marcy l'Etoile, France) and the NEG Breakpoint Combo Type 30 panel on the MicroScan WalkAway®-96 SI system (Dade Behring, Liederbach, Germany). All bacterial strains were either routinely cultured at 37° C. on Mueller-Hinton (MH) agar or grown in Luria Bertani broth (LB).
(§1) The antibiotic susceptibility was determined with the NEG MIC Type 30 panel on the MicroScan WalkAway®-96 SI system. The MICs were interpreted according to the NCCLS guidelines.
The test collective of P. aeruginosa isolates was recovered from three intensive care units (ICU) or other hospital wards as far as an unusual multidrug resistance was observed. […] 4.

Assay [2] shares this test system. Details: species or system Pseudomonas aeruginosa. As to conditions: predicted from mutations and resistance genes found by array in 60 isolates. The procedure: The 60 P. aeruginosa isolates were tested with the array applying the same hybridization conditions. Tab.
In order to compare genotype and phenotype based resistance profiles, we calculated a cumulative resistance rate against different groups of antibiotics based on the array data (Tab. 6).

Assay [3] deals with 3 consecutive Pseudomonas aeruginosa isolates from the same patient. In words: Phenotypic susceptibility profile of 3 consecutive isolates from the same patient. In kind it is cell-based. Particulars: S/R phenotype. The procedure: as §1
Setting [4] is: Table 3, P. aeruginosa test collective.
[5] abbreviates: Table 6, phenotypic resistance rate.
Where [6] appears, read: Table 6, MIC tied to the resistant isolates, NCCLS interpretation.

Where two headings read alike, the source gives them in different places.

As usually defined, the MIC is the lowest concentration found to suppress growth. Regarding `NCC[C@H](O)C(=O)N[C@@H]1C[C@H](N)[C@@H](O[C@H]2O[C@H](CN)[C@@H](O)[C@H](O)[C@H]2O)[C@H](O)[C@H]1O[C@H]1O[C@H](CO)[C@@H](O)[C@H](N)[C@H]1O` [Amikacin, amikacin], the MIC in assay [1] is greater than 32 µg/mL. Further, the “% of resistant isolates out of 60” value in assay [1] (setting [4]) and in assay [1] (setting [5]) was 17% in each case. The “Number of resistant isolates out of 60” value in assay [1] (setting [4]) came to 10; in assay [1] (Table 6, phenotypic resistance), 10.
`CC(C)(O/N=C(\C(=O)N[C@@H]1C(=O)N2C(C(=O)[O-])=C(C[n+]3ccccc3)CS[C@H]12)c1csc(N)n1)C(=O)O` [Ceftazidim, ceftazidime]: the “% of resistant isolates out of 60” value in assay [1] (setting [4]) and in assay [1] (setting [5]) was 33% throughout. The “Number of resistant isolates out of 60” value in assay [1] (setting [4]) was 20; in assay [1] (Table 6, phenotypic resistance), 20. In addition, the “60 MIC” value in assay [1] (setting [6]) is greater than 16 µg/mL.
On to `C[C@@H](O)[C@H]1C(=O)N2C(C(=O)O)=C(SCCN=CN)C[C@H]12` [Imipenem, imipenem], for which the MIC in assay [1] is greater than 8 µg/mL. The “% of resistant isolates out of 60” value in assay [1] (setting [4]) and in assay [1] (setting [5]) was 45% in each case. The “Number of resistant isolates out of 60” value is 27 in assay [1] (setting [4]) and 27 in assay [1] (Table 6, phenotypic resistance). Besides, the susceptibility rate result in assay [1] (test collective of isolates) is reported as “less than 55%”.
Regarding `C[C@H]1COc2c(N3CCN(C)CC3)c(F)cc3c(=O)c(C(=O)O)cn1c23` [Levofloxacin, levofloxacin], in assay [1], the MIC is greater than 4 µg/mL. In addition, the “% of resistant isolates out of 60” value in assay [1] (setting [4]) and in assay [1] (setting [5]) was 43% throughout. Also, the “Number of resistant isolates out of 60” value in assay [1] (setting [4]) was found to be 26; in assay [1] (Table 6, phenotypic resistance), 26.
Consider `CCN1CCN(C(=O)N[C@@H](C(=O)N[C@@H]2C(=O)N3[C@@H]2SC(C)(C)[C@@H]3C(=O)O)c2ccccc2)C(=O)C1=O` [Piperacillin, piperacillin], for which, in assay [1] (setting [6]), the MIC was greater than 64 µg/mL. Besides, the “% of resistant isolates out of 60” value in assay [1] (setting [4]) and in assay [1] (setting [5]) was 35% each time. Besides, the “Number of resistant isolates out of 60” value stood at 21 in assay [1] (setting [4]) and 21 in assay [1] (Table 6, phenotypic resistance). Moreover, the “Cumulative resistance predicttion deduced from array” value in assay [2] is on record as 38%.
With `NC[C@H]1O[C@H](O[C@H]2[C@H](O)[C@@H](O[C@H]3O[C@H](CO)[C@@H](O)[C@H](N)[C@H]3O)[C@H](N)C[C@@H]2N)[C@H](N)C[C@@H]1O` [Tobramycin, tobramycin], the MIC in assay [1] is greater than 8 µg/mL. Also, the “% of resistant isolates out of 60” value in assay [1] (setting [4]) and in assay [1] (setting [5]) was 10% in each case. Besides, the “Number of resistant isolates out of 60” value in assay [1] (setting [4]) worked out at 6; in assay [1] (Table 6, phenotypic resistance), 6. Moreover, in assay [3] (collected one week after the first isolate), the “Susceptibility profile, Isolate 2” value is recorded as “susceptible”. Also, the “Susceptibility profile, Isolate 1” value in assay [3] (first isolate) is reported as “susceptible”. For the same compound, in assay [3] (last of three isolates collected within three weeks), the “Susceptibility profile, Isolate 3” value is given as “resistance”.
For the compound colistin, the “% of resistant isolates out of 60” value in assay [1] (setting [4]) and in assay [1] (setting [5]) was 0% throughout. The “Number of resistant isolates out of 60” value in assay [1] (setting [4]) was 0; in assay [1] (Table 6, phenotypic resistance), 0. In assay [1] (test collective of isolates), this compound displayed a resistance rate of 0%. The “Cumulative resistance predicttion deduced from array” value in assay [2] is on record as 0%.
On to gentamicin, for which the “% of resistant isolates out of 60” value in assay [1] (setting [4]) and in assay [1] (setting [5]) was 37% each time. In addition, the “Number of resistant isolates out of 60” value was determined as 22 in assay [1] (setting [4]) and 22 in assay [1] (Table 6, phenotypic resistance). For the same compound, the “60 MIC” value in assay [1] (setting [6]) is greater than 8 µg/mL. For the same compound, the “Cumulative resistance predicttion deduced from array” value in assay [2] is reported as 45%.

(Values after US20060211002A1, “Antibiotic susceptibility and virulence factor detection in Pseudomonas aeruginosa” (priority 2005, published 2006).)
